{
  "source": "patent US12656344B2",
  "about": "“CTL peptide epitopes and antigen-specific T cells, methods for their discovery, and uses thereof” (Oslo universitetssykehus HF, priority 2013, dated 2026)",
  "key": {"[1]": {"test_system": "T cell clones reactive to MPO peptide #25", "experiment": "Binding of HLA-A2 multimers with alanine-substituted MPO peptide #25 to T cell clones", "format": "cell-based, human", "conditions": "PE-conjugated multimers; 3 T cell clones from CTL line #25; flow cytometry", "description": "FIG. 6A-C. […] (A) Assays were performed as described in FIG. 2, except that only degranulation responses were measured. […] (B) Three of the clones shown in (A) were examined for binding of PE-conjugated HLA-A2 multimers containing the #25 peptide with and without an alanine substitution in each position, using flow cytometry.\nTo obtain more information on the range of T cell reactivities to one of these novel T cell epitopes, T-cell clones were generated from CTL line #25, specific for MPO epitope […] (SEQ ID NO:45)."}, "[2]": {"test_system": "primary T cells transduced with a MART-1 specific TCR", "experiment": "Binding of alanine-replaced peptide #25 multimers to MART-1 TCR transduced T cells", "format": "cell-based, human", "conditions": "specificity control for alanine-replaced multimers"}},
  "note": "Where no end group is shown, it is not given here.",
  "data": [
    {"substance": "P506A: MPO peptide #25 (LIQPFMFRL) with an alanine-replacement in position 4, in HLA-A2 multimer (LIQAFMFRL; also: in HLA-A2 multimer) [Peptide P506A]", "values": [
      {"measurement": "HLA-A2 multimer binding of alanine-substituted #25 peptide relative to WT peptide", "setting": "[1]", "value": "higher binding"},
      {"measurement": "Multimer binding to primary T cells transduced with a MART-1 specific TCR", "setting": "[2]", "value": "bound non-specifically"}
    ]}
  ]
}
